# Measurements: publication PMC4098076 (Nature, 2014)
# Molecular target: T1, aryl hydrocarbon receptor (AhR) (Mus musculus, UniProt P30561)
# T1 sequence (P30561 10-848): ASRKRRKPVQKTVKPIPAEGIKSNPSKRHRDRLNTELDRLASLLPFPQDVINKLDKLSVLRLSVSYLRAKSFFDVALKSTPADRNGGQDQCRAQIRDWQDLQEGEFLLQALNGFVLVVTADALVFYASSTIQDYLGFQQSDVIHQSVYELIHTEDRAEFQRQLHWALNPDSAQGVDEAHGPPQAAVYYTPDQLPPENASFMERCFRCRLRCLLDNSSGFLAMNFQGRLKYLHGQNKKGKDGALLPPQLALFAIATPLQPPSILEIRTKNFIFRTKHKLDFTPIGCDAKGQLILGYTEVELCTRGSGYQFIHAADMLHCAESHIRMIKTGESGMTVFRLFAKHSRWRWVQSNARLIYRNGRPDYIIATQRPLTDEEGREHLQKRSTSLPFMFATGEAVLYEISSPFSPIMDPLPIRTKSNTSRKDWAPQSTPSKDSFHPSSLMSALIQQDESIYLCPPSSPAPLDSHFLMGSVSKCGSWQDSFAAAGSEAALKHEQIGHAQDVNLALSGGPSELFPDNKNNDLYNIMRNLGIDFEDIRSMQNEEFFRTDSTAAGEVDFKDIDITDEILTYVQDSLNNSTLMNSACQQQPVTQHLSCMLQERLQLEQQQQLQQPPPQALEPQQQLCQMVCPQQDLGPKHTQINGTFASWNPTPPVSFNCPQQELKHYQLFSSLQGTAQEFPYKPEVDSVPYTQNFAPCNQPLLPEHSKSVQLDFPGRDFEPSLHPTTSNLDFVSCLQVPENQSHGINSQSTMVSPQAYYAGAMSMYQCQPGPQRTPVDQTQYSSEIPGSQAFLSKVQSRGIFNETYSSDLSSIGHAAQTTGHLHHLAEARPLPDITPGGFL
# Assay: radioligand competition with [3H]TCDD
# Format: binding
structure (smiles),measurement,value
Nc1ccccc1C(=O)C[C@H](N)C(=O)O [L-kynurenine],Ki,21.6 µM
